Tests used:
[1] = system: E-cadherin expression in SW620inv colon cancer cells; test: Quantitative in-cell Western (ICW), E-cadherin restoration in SW620inv cells; type: cell-based; conditions: 24 hours, 3 biological replicates
Description: SW620inv cells were used for ICW analysis as described (Stoops, S. L., et al. (2011) ACS Chemical Biology 6, 452-465).
SW620 cells (ATCC p92) were grown in RPMI+10% FBS+P/S to sub-confluence. The cells were washed with PBS, trypsinized, and re-suspended in serum-free RPMI at a concentration of one million cells/mL. The cells were then added to the upper chamber of 24 mm transwell (Costar#3428) that had been coated with 400 μL of 2.5 mg/mL matrigel (BD Biosciences). One milliliter of 10% FBS+P/S was added to the lower chamber. The cells were incubated at 37° C. for 72 hours in order to allow the cells to invade. Four biological replicate transwells were prepared for invasion. […] These invasive cells were then analyzed by western blot, matrigel invasion assay, and immunofluorescence for E-cadherin levels with and without TSA treatments. […]
Compounds of the present invention restore E-cadherin protein to the surface of selected aggressive colon and lung cancer cells. […] The kinetics of altered E-cadherin expression in SW620inv cells was determined by quantitative Western blot, using the Odyssey imaging system. […]
Referring to FIG. 2B and FIG. 2C, concentration dependent changes in E-cadherin expression following 24 hours of Compound 13 (259Y) treatment as determined by quantitative in cell Western (ICW) are shown.

[2] = IV pharmacokinetics in Sprague-Dawley rats; type: in vivo; conditions: IV dosing
Description: (§1) The potency and efficacy of Compound 13 was evaluated in vivo. For these studies, the pharmacokinetics of Compound 13 were first evaluated in vitro and in vivo (FIG. 14).

[3] = Clearance in human microsomes; type: in vitro ADME
Description: as §1

[4] = system: E-cadherin mRNA in H520 cells; test: qPCR of E-cadherin specific mRNA, H520 cells; type: cell-based; conditions: H520, 10 μM, 6 hours post-treatment, relative to DMSO
[5] = system: E-cadherin expression in H520 cells; test: E-cadherin expression, in-cell Western (ICW), H520 cells; type: cell-based; conditions: Homo sapiens, NCI-H520
Description: SW620 and H520 cells (5×10^4/100 μL) were seeded in a 96-well plate prior to treatment. Cells were treated with 10 μM concentration of synthesized compound in quadruplicate for 24 hours in RPMI 1640 supplemented medium and 100 μg/mL penicillin-streptomycin. The cells were then fixed with 100% methanol for 20 minutes at 4° C. The wells were then washed 2 times with PBS, permeabilized in 2% bovine serum albumin (BSA) and 0.2% TritonX-100 in PBS for 30 minutes at room temperature with gentle agitation, and blocked in LI-COR blocking buffer for 30 minutes at room temperature with gentle agitation. The cells were then incubated with the following primary antibodies: anti-E-Cadherin (1:500) and anti-α-Tubulin (1:1000) diluted in blocking buffer (1:1 dilution in PBS) for 2 hours at room temperature with gentle agitation. The cells were washed 4 times in PBS-T for 5 minutes each, and then incubated with the following secondary antibodies conjugated to a fluorescent entity: IRDye 800-conjugated goat anti-rabbit IgG (1:1000) and IRDye-700-conjugated goat anti-mouse IgG (1:2000) in blocking buffer (1:1 dilution in PBS) with gentle agitation for 1 h at room temperature. The cells were washed 4 times in PBS-T for 5 minutes each followed by a single wash with PBS. All liquid was removed from the wells and the plates were visualized and analyzed on the Odyssey IR imaging system (LI-COR Biosciences).
The assay was further optimized in the following manner. The cells were washed 2 times with PBS, fixed in 100% methanol at room temperature for 15 minutes, and again washed 2 times with PBS. The cells were then incubated with the following primary antibodies: anti-E-Cadherin (1:200) and anti-α-Tubulin (1:2000) diluted in ice cold 2% bovine serum albumin (BSA) and 0.2% TritonX-100 in PBS for 1 hour at room temperature with gentle agitation. The cells were washed 2 times in PBS and then incubated with the following secondary antibodies conjugated to a fluorescent entity: Licor 800-conjugated goat anti-rabbit IgG (1:2000) and IRDye-700-conjugated goat anti-mouse IgG (1:2000) in ice cold 2% BSA and 0.2% TritonX-100 in PBS with gentle agitation for 45 minutes at room temperature. The wells were washed 2 times in PBS, dried, and analyzed as previously mentioned.
Changes in expression level of E-cadherin in response to 10 μM compound in H520 cells was determined in a cell-based functional assay as described above, and the data are shown in Table IV. The compound number corresponds to the compound numbers used in Table II.
EC50 of inducement of E-cadherin expression in H520 cells was determined in a cell-based functional assay as described above, and the data are shown in Table VI. The compound number corresponds to the compound numbers used in Table II.

[6] = system: proximal region of the E-cadherin promoter (Cdh1) in SW620inv cells; test: ChIP assay at proximal E-cadherin promoter, SW620inv cells; type: cell-based
[7] = system: E-cadherin protein in SW620inv cells; test: Quantitative Western blot of E-cadherin protein, SW620inv time course; type: cell-based; conditions: maintained level, 12, 18 and 24 hour time-points
[8] = Intrinsic clearance in vitro, mouse; type: in vitro ADME
Description: as §1

[9] = Protein binding in vitro, human samples; type: in vitro ADME
Description: as §1

Clearance in vitro, rat = type: in vitro ADME
Description: as §1

[10] = SW620inv, ChIP, 10 μM vs DMSO (FIG. 7C)

O=C(NCCCNC(=O)c1cccnc1O)c1cc(-c2ccccc2)on1 [Compound 13, N-(3-(2-hydroxynicotinamido)propyl)-5-phenylisoxazole-3-carboxamide]
EC50 [1]: 2.22 µM | clearance [2]: moderate | elimination half-life [2]: long | volume of distribution [2]: moderate | clearance [3]: minimal | increase of E-cadherin specific mRNA [4]: 20 fold | fold induction at 10 µM ([5]; change in expression level of E-cadherin in response to 10 μM compound, 24 hours, H520 cells): 5.54 | EC50 ([5]; inducement of E-cadherin expression in H520 cells): 1 µM | Pol II association with the E-cadherin proximal promoter ([6]; ChIP (FIG. 8)): 3.7 fold | enriched binding of H3K4me3 at the E-cadherin promoter [6, 10]: 2.1 fold | enriched binding of H3K9Ac at the E-cadherin promoter [6, 10]: 3.4 fold | enriched binding of Pol II at the E-cadherin promoter [6, 10]: 4.6 fold | E-cadherin protein levels relative to control vehicle treated cells [7]: > 10 × | intrinsic clearance [8]: high | protein binding [9]: relatively high | clearance (Clearance in vitro, rat): very moderate

— patent US9783510B2, “Small molecule mediated transcriptional induction of E-cadherin” (Vanderbilt University, priority 2014, dated 2017)
